According to US12631620B2, “Methods of generating organoids for high throughput screening of drugs” (Yissum Research Development Company of the Hebrew …, priority 2019, dated 2026):
Values joined by “and” are separate entries in the source; they are usually repeats but may differ in a detail not shown here. Identical values can stand only once.

Tests used:
E6/E7^LOW hepatocytes = conditions: flux balance analysis, below threshold of cellular damage; Valproate sustained, Stavudine transient
Description: According to some embodiments of the invention there is a sensor-integrated liver on chip array in which oxygen is monitored using two-frequency phase modulation of tissue-embedded phosphorescent microprobes, while glucose, lactate and temperature are measured in real time using microfluidic electrochemical sensors. Such a microphysiological platform permits the calculation of dynamic changes in metabolic fluxes around central carbon metabolism, producing a unique metabolic fingerprint of the liver's response to stimuli.

HepG2/C3A organoids [1] = assay: Neutral lipid and phospholipid staining of HepG2/C3A organoids on chip; assay type: cell-based, human; conditions: p<0.001, n=9
[2] = test system: E6/E7^LOW human hepatocytes; assay: Steatosis and phospholipidosis, HCS LipidTOX detection kit, hepatocyte cultures; assay type: cell-based
Description: Quantification of Apoptotic index was performed using DeadEnd™ fluorometric TUNEL System (Promega) according to manufacturer directions. Briefly, cells were treated with TC20 concentrations of compounds dissolved in culture medium for 24 hours, and subsequently fixed in 4% Paraformaldehyde (PFA). Cells were then permeabilized and exposed to fluorescein-12-dUTP and terminal deoxynucleotidyl transferase (TdT). The reaction was subsequently stopped and the cells counterstained with 1 μg/mL Hoechst 33258. Apoptotic cells were positive for green fluorescence in the nucleus. Percentage apoptosis was defined as the number of TUNEL positive nuclei normalized to Hoechst 33258 positive nuclei. Quantification of Steatosis was performed using HCS LipidTOX™ Phospholipidosis and Steatosis Detection Kit (ThermoFisher). Briefly, differentiated cells were incubated with different concentrations of compounds dissolved in culture medium and 1× Phospholipidosis Detection Reagent for 48 hours, subsequently fixed in 4% PFA. Cells were then stained with 1× LipidTOX™ for 20 minutes and counterstained with 1 μg/mL Hoechst 33258. Staining intensity was normalized to number of Hoechst 33258 positive nuclei. Quantification of Bile Secretion was performed using 5(6)-carboxy-2′,7′-dichlorofluorescein diacetate (CDFDA) staining. Briefly, differentiated cells were incubated with different concentrations of compounds dissolved in culture medium for 24 hours. Cells were then treated with 10 μg/mL CDFDA and 1 μg/mL Hoechst 33342 for 30 minutes. Incubation medium was removed and cultures washed with ice-cold PBS containing calcium and magnesium. Staining intensity was normalized to number of Hoechst 33342 positive nuclei. Analysis excluded Intracellular CDFDA staining based on intensity and phase images. All quantifications were made in comparison to cells treated with melatonin as negative control.
Quantification of Apoptotic index was performed using DeadEnd™ fluorometric TUNEL System (Promega) according to manufacturer directions. Briefly, cells were treated with TC20 concentrations of compounds dissolved in culture medium for 24 hours, and subsequently fixed in 4% Paraformaldehyde (PFA). Cell were then permeabilized and exposed to fluorescein-12-dUTP and terminal deoxynucleotidyl transferase (TdT). The reaction was subsequently stopped and the cells counterstained with 1 μg/mL Hoechst 33258. Apoptotic cells were positive for green fluorescence in the nucleus. […] Quantification of Steatosis was performed using HCS LipidTOX™ Phospholipidosis and Steatosis Detection Kit (ThermoFisher). […] Quantification of Bile Secretion was performed using 5(6)-carboxy-2′,7′-dichlorofluorescein diacetate (CDFDA) staining. […] All quantifications were made in comparison to cells treated with melatonin as negative control.

HepG2/C3A organoids [3] = assay: Real-time oxygen uptake toxicity (TC50, time to onset, lowest exposure level) in differentiated HepG2/C3A organoids; assay type: cell-based, human; conditions: for TC50: oxygen uptake; for lowest exposure level (LEL): horizontal asymptote, onset of damage at infinite time
Description: A suspension of HepG2/C3A cells and CPOx-50-RuP beads (Colibri Photonics, Germany) were suspended in 2.5 mg/ml rat tail collagen type I (Corning, USA) at a cell density of 7×10^5 cells/μl. A volume of 1.1 μl of the gel-imbedded mixture was injected into each microwell and left to form spontaneously until their metabolic activity stabilized around day 4.
Fifty-micrometer-diameter polystyrene microbeads were loaded with ruthenium-phenanthroline-based phosphorescence dye (CPOx-50-RuP). […] Oxygen acts as a quencher, leading to a decrease in decay time and signal intensity with increasing concentration. The present inventors chose to measure decay time, rather than signal intensity, as it is not sensitive to changes in probe concentration or excitation intensity over the course of the experiment. The signal was measured using the OPAL system (Colibri Photonics, Germany) that comprises of a control module, 532 nm LED excitation source, and a photomultiplier (PMT) detector mounted on the ocular of an IX81 Olympus microscope (Olympus, Japan). A filter cube with 531/40 (Ex), 555, 607/70 (Em) was inserted in the optical light path during measurements. To accurately measure decay time, the present inventors chose phase modulation in which sinusoidal amplitude-modulated light is shifted in phase due to oxygen quenching. To overcome the superposition of in-phase background fluorescence that alters the phase of the detected signal, the present inventors used a novel 53.5 and 31.3 kHz two-frequency phase modulation that allowed to screen out the interference [Schmalzlin E., et al., 2005. Biophysical journal, 89: 1339-1345; Papkovsky, D. B. et al., 2004. Methods in enzymology, 381, 715-735; Ast, C., et al., 2012. Sensors (Basel), 12: 7015-7032; Engelhard, S., et al., 2006. Analytical and bioanalytical chemistry, 384: 1107-1112; Prill, D. et al., 2016, Archives of toxicology, 90: 1181-1191]. Measurements were carried out by averaging five consecutive 4-s exposures. Measurements were taken every 15 minutes. Under similar conditions, 28 days of measurement of organoids was done with no apparent phototoxicity, signal drift, or relevant loss of signal intensity (Schmalzlin E., et al., 2005. Biophysical journal, 89: 1339-1345). Assessment of Cellular Toxicity and Time to Onset
Organoids were exposed to different concentrations of compounds dissolved in culture medium. Cell viability was determined by oxygen uptake following 24 hours of exposure unless otherwise noted. TC50 concentrations were determined using MATLAB by sigmoidal curve fitting (Wenner, M. M. et al., 2011, J Appl Physiol (1985), 111: 1703-1709; Prentice, R. L. et al., 1976, Biometrics, 32: 761-768). Time to onset was analyzed by MATLAB based on LPF and trend assessment.
To find the asymptotic concentration for which damage occurs only at infinite exposure time, the present inventors used a previously developed model for accumulative drug exposure (El-Kareh et al., 2000. Neoplasia, 2: 325-338; Currie, G. M. 2018. J Nucl Med Technol, DOI: 10.2967/jnmt.117.199588). The model is based on the steady-state dynamics of flux accumulation, using a linear first-order approximation of the cell membrane. The flux behavior is described by
where J(C) is the concentration dependent flux, Jmin is the minimal flux that will cause an effect, t is time of exposure and |τ is a drug-cell specific constant accounting reaction dynamics (Gowrishankar et al., 2003. Proceedings of the National Academy of Sciences of the United States of America, 100: 3203-3208; Kotnik T. et al., 2000. IEEE Trans Biomed Eng, 47: 1074-1081). In the present case, t is the Time to Onset (TTO) of damage creating a bi-asymptotic behavior. This adapted model is used to describe lowest exposure level (LEL) under first order, steady state assumptions, as
Real-time oxygen measurements were performed optically using on-chip lifetime-based luminescence quenching (LBLQ). […]

[4] = cited from earlier work

CCCC(CCC)C(=O)O [Valproate, 2-n-propylpentanoic acid]
increase in lipogenesis (E6/E7^LOW hepatocytes): 15% | increase in the amount of intracellular lipids (HepG2/C3A organoids [1]): 4 fold | phospholipidosis [2]: Evidence of phospholipidosis was seen | neutral lipids ([2]; p<0.001, n=4): strong and significant increase | TC50 (HepG2/C3A organoids [3]; at 24 hours): 27 mM | TC50 (HepG2/C3A organoids [3]; at 42 hours): 14 mM and 14 ± 2 mM | Time to onset (TTO) of response (HepG2/C3A organoids [3]; dose-dependent range over concentrations tested): 6 to 36 h | lowest exposure level (LEL) (HepG2/C3A organoids [3]; ± standard error): 280 ± 97 µM | lowest exposure level (LEL) (HepG2/C3A organoids [3]; ± standard error of curve fit): 280 ± 97 µM | TC50 plateau value as a function of time (HepG2/C3A organoids [3]; plateau of TC50 over time): around 5 mM | direct mitochondrial damage (HepG2/C3A organoids [3]; sub-toxic levels): no indication of direct mitochondrial damage | patients with evidence of steatosis ([4]; abdominal ultrasound): 61% | patients with elevated liver enzymes ([4]; patients on therapy): Over 40%
